Assay results as given in patent US20260199479A1, “DRUG LINKER AND LINKER-CONJUGATED COMPOUND” (Anti-Microbial Savior BioteQ Co., Ltd., priority 2022, published 2026).
Converted amounts (≈) assume the structure as drawn.

Experiments:
[1] = Water solubility test (HPLC); type: physicochemical; conditions: double distilled water, thermodynamic from solid
Protocol: 5 mg of the standard test compound was weighed and dissolved in 5 mL of IPA as a stock solution (1 mg/mL). Double distilled water was then diluted to prepare 1000, 100, 50, 25, 12.5, 10, 5, 2.5, 1.25, 1, 0.5, 0.25, 0.125 μg/mL standard solution calibration lines. 60 μL of each concentration standard solution was used for HPLC analysis. Peak areas were integrated to establish a calibration line, and the accuracy of the analysis method was evaluated through the correlation coefficient (R-squared).
1 mL of double distilled water was weighed into a microcentrifuge tube and the test compound was dissolved. Undissolved compounds were ensured to be still present by vortexing for 5 min and sonicating for 20 min. After centrifugation, the supernatant was filtered through a 0.22 μm PTEF membrane. The […] was analyzed by HPLC and the water solubility was calculated from the peak area.

MCF-7 = assay: Cytotoxicity screening, PrestoBlue cell viability; type: cell-based, human; conditions: MCF-7, breast cancer cells
Protocol: MCF7, human breast cancer, was obtained from the Bioresource Collection and Research Center (BCRC, Taiwan, China). Cells were cultured in minimal essential Eagle's culture medium (FBS) (Gibco, USA) containing 2 mM L-glutamic acid, 1.5 mg/mL sodium bicarbonate, 0.1 mM non-essential amino acids, 1.0 mM sodium pyruvate (Gibco, USA), 10% fetal bovine serum (Gibco, USA) and 1% antibiotics (1×penicillin, streptomycin and glutamic acid) (Gibco, USA).
(§1) Cell viability was assessed with PrestoBlue assay (Invitrogen, USA). Cells were seeded into 96-well plates and cultured with test compounds according to the manufacturer's protocol. After 48 hours of exposure to test compounds, the culture medium was discarded and rinsed with PBS. […] Absorbance was measured at the experimental wavelength of 570 nm and the normalized wavelength of 600 nm in a SpectraMax iD3 microplate reader. […] Cell viability was expressed as a percentage relative to the control, and calculated using the following formula: cell viability (%)=[(Absorbance of test wells at 570 nm−Absorbance of only culture medium wells at 570 nm−Absorbance of test wells at 600 nm+Absorbance of only culture medium wells at 600 nm)/Absorbance of the control well at 570 nm−Absorbance of only culture medium wells at 570 nm-Absorbance of the control well at 600 nm+Absorbance nm of only culture medium wells at 600 nm)]×100.

Caco-2 = assay: Cytotoxicity screening, PrestoBlue cell viability; type: cell-based; conditions: Caco-2, colon cancer cells
Protocol: Caco-2, colorectal adenocarcinoma, was obtained from the Bioresource Collection and Research Center ([…]). Cells were cultured in minimal essential Eagle's culture medium (FBS) (Gibco, USA) containing 2 mM L-glutamic acid, 1.5 mg/mL sodium bicarbonate, 0.1 mM non-essential amino acids, 1.0 mM sodium pyruvate (Gibco, USA), 20% fetal bovine serum (Gibco, USA), and 1% antibiotics (1×penicillin, streptomycin and glutamic acid) (Gibco, USA).
as §1

NOZ cells = assay: Cytotoxicity screening, PrestoBlue cell viability; type: cell-based, human; conditions: gallbladder cancer cells
Protocol: (§2) NOZ cells, human gallbladder cancer cells, were obtained from the Japanese Collection of Research Bioresources Cell Bank (JCRB, Japan). Cells were cultured in 90% William's E culture medium (Gibco, USA), 10% fetal bovine serum (FBS) (Gibco, USA), and 1% antibiotics (1×penicillin, streptomycin and glutamine) (Gibco, USA).
(§3) Cell viability was assessed with PrestoBlue assay (Invitrogen, USA). Cells were seeded into 96-well plates and cultured with test compounds according to the manufacturer's protocol. After 48 hours of exposure to test compounds, the culture medium was discarded and rinsed with PBS. Then, add 10 μL PrestoBlue reagent containing 90 μL culture medium to the cells and incubate the cell plate at 37° C. in the dark for 120 min. Absorbance was measured at the experimental wavelength of 570 nm and the normalized wavelength of 600 nm in a SpectraMax iD3 microplate reader. […] Cell viability was expressed as a percentage relative to the control, and calculated using the following formula: cell viability (%)=[(Absorbance of test wells at 570 nm−Absorbance of only culture medium wells at 570 nm−Absorbance of test wells at 600 nm+Absorbance of only culture medium wells at 600 nm)/Absorbance of the control well at 570 nm−Absorbance of only culture medium wells at 570 nm-Absorbance of the control well at 600 nm+Absorbance nm of only culture medium wells at 600 nm)]×100.

HCT-15 = assay: Cytotoxicity screening, PrestoBlue cell viability; type: cell-based; conditions: HCT-15, colon cancer cells
Protocol: (§4) HCT-15, colorectal adenocarcinoma, was obtained from the Bioresource Collection and Research Center (BCRC, Taiwan, China). Cells were cultured in RPMI 1640 culture medium (Gibco, USA) containing 10% fetal bovine serum (FBS) (Gibco, USA) and 1% antibiotics (1×penicillin, streptomycin and glutamic acid) (Gibco, USA).
as §3

AsPC-1 = assay: Cytotoxicity screening, PrestoBlue cell viability; type: cell-based, human; conditions: AsPC-1, pancreatic cancer cells
Protocol: as §4, with “AsPC-1, human pancreatic adenocarcinoma ascites metastatic cells, were” for “HCT-15, colorectal adenocarcinoma, was”, “FBS” for “fetal bovine serum (FBS)”
as §3

A549 = assay: Cytotoxicity screening, PrestoBlue cell viability; type: cell-based, human; conditions: A549, lung cancer cells
Protocol: as §4, with “A549, human non-small cell lung cancer cells, were” for “HCT-15, colorectal adenocarcinoma, was”, “F12K” for “RPMI 1640”, “FBS” for “fetal bovine serum (FBS)”
as §3

HuH28 cells = assay: Cytotoxicity screening, PrestoBlue cell viability; type: cell-based, human; conditions: HuH28, 20 μg/mL
Protocol: as §2, with “HuH28” for “NOZ”, “liver, and cholangiocarcinoma” for “gallbladder cancer”, “RPMI 1640” for “William's E”
as §3

HuCCT1 cells = assay: Cytotoxicity screening, PrestoBlue cell viability; type: cell-based, human; conditions: HuCCT1, 20 μg/mL
Protocol: HuCCT1 cells, human cholangiocarcinoma cells, were obtained from iCell Bioscience Inc. (iCell, China). Cells were cultured in 90% RPMI 1640 culture medium (Gibco, USA), 10% fetal bovine serum (FBS) (Gibco, USA), and 1% antibiotics (1×penicillin, streptomycin and glutamine) (Gibco, USA).
as §3

PANC-1 = assay: Cytotoxicity screening, PrestoBlue cell viability; type: cell-based, human; conditions: PANC-1, pancreatic cancer cells
Protocol: PANC-1, human pancreatic epithelioid carcinoma, was obtained from the American Type Culture Collection (ATCC, USA). Cells were cultured in DMEM culture medium (Gibco, USA) containing 10% FBS (Gibco, USA) and 1% antibiotics (1×penicillin, streptomycin and glutamic acid) (Gibco, USA).
(§5) Cell viability was assessed with PrestoBlue assay (Invitrogen, USA). Cells were seeded into 96-well plates and cultured with test compounds according to the manufacturer's protocol. After 48 hours of exposure to test compounds, the culture medium was discarded and rinsed with PBS. Then, add 10 μL PrestoBlue reagent containing 90 μL culture medium to the cells and incubate the cell plate at 37° C. in the dark for 120 min. Absorbance was measured at the experimental wavelength of 570 nm and the normalized wavelength of 600 nm in a SpectraMax iD3 microplate reader. The result was corrected by subtracting the blank value. Cell viability was expressed as a percentage relative to the control, and calculated using the following formula: cell viability (%)=[(Absorbance of test wells at 570 nm−Absorbance of only culture medium wells at 570 nm−Absorbance of test wells at 600 nm+Absorbance of only culture medium wells at 600 nm)/Absorbance of the control well at 570 nm−Absorbance of only culture medium wells at 570 nm-Absorbance of the control well at 600 nm+Absorbance nm of only culture medium wells at 600 nm)]×100.

BxPC-3 = assay: Cytotoxicity screening, PrestoBlue cell viability; type: cell-based, human; conditions: BxPC-3, pancreatic cancer cells
Protocol: as §4, with “BxPC-3, human pancreatic adenocarcinoma cells, were” for “HCT-15, colorectal adenocarcinoma, was”, “FBS” for “fetal bovine serum (FBS)”
as §3

[2] = test system: normal cells or cancer cells; assay: Cytotoxicity tests in various cell lines (summary); type: cell-based; conditions: normal cells and cancer cells, various cell lines (Table 3)
Protocol: as §5
Taking the linker of the present invention (n=2; X, Y, Z=O; R^1, R^2, R^4=H; R^3=CH3) as an example, the linker has significant advantages in terms of synthetic elastic properties. […]

Vero E6 cells = assay: Cytotoxicity screening, PrestoBlue cell viability; type: cell-based, cercopithecus aethiops; conditions: Vero E6, normal kidney cells
Protocol: Vero E6 cells, cercopithecus aethiops renal epithelial cells, were obtained from the American Type Culture Collection (ATCC, USA). Cells were cultured in Dulbecco's Modified Eagle Medium (DMEM) (Gibco, USA) containing 10% FBS (Gibco, USA), 100 U/mL penicillin, and 100 μg/mL streptomycin (Gibco, USA). Cell viability was assessed with PrestoBlue assay (Invitrogen, USA). Cells were seeded into 96-well plates and cultured with test compounds according to the manufacturer's protocol. After 48 hours of exposure to test compounds, the culture medium was discarded and rinsed with PBS. Then, add 10 μL PrestoBlue reagent containing 90 μL culture medium to the cells and incubate the cell plate at 37° C. in the dark for 120 min. Absorbance was measured at the experimental wavelength of 570 nm and the normalized wavelength of 600 nm in a SpectraMax iD3 microplate reader. […] Cell viability was expressed as a percentage relative to the control, and calculated using the following formula: cell viability (%)=[(Absorbance of test wells at 570 nm−Absorbance of only culture medium wells at 570 nm−Absorbance of test wells at 600 nm+Absorbance of only culture medium wells at 600 nm)/Absorbance of the control well at 570 nm−Absorbance of only culture medium wells at 570 nm-Absorbance of the control well at 600 nm+Absorbance nm of only culture medium wells at 600 nm)]×100.

AML12 cells = assay: Cytotoxicity screening, PrestoBlue cell viability; type: cell-based, mouse; conditions: AML12, normal hepatocytes
Protocol: AML12 cells, alpha mouse liver 12, were obtained from the American Type Culture Collection (ATCC, USA). Cells were cultured in DMEM: F12 culture medium (Gibco, USA), 10% fetal bovine serum (FBS) (Gibco, USA), 10 μg/mL insulin, 5.5 μg/mL transferrin, 5 ng/ml selenium, 40 ng/ml dexamethasone (Gibco, USA), and 1% antibiotics (1×penicillin, streptomycin and glutamic acid) (Gibco, USA).
as §1

**Q.** For `CC(C)=CCC/C(C)=C/CC/C(C)=C/CO` [Farnesol, reference compound], which solubility [1] is on record?
**A.** The solubility was 87.4 µg/mL (≈ 393 µM).

**Q.** For `C/C(=C\CO)CC/C=C(\C)CCC(O)C(C)C(=O)O` (stereo not drawn) [Linker of the present invention, (6E,10E)-3,12-dihydroxy-2,6,10-trimethyldodec-6,10-dienoic acid], which “20 μg/mL 48-hour survival rate” value (MCF-7) is on record?
**A.** Its value is 89.45 ± 8.95%.

**Q.** What about the “20 μg/mL 48-hour survival rate” value (Caco-2) of the same molecule?
**A.** Its value is 99.94 ± 3.16%.

**Q.** What about the “20 μg/mL 48-hour survival rate” value (NOZ cells) of the same molecule?
**A.** The value was 107.26 ± 14.11%.

**Q.** What about the “20 μg/mL 48-hour survival rate” value (HCT-15) of the same molecule?
**A.** Its value is 88.96 ± 15.45%.

**Q.** What about the “20 μg/mL 48-hour survival rate” value (AsPC-1) of the same molecule?
**A.** The value was 93.02 ± 5.01%.

**Q.** And the “20 μg/mL 48-hour survival rate” value (A549)?
**A.** The value was 82.28 ± 5.53%.

**Q.** And the “20 μg/mL 48-hour survival rate” value (HuH28 cells)?
**A.** The value was 87.92 ± 5.14%.

**Q.** And the “20 μg/mL 48-hour survival rate” value (HuCCT1 cells)?
**A.** Its value is 110.04 ± 0.17%.

**Q.** What about the “20 μg/mL 48-hour survival rate” value (PANC-1) of the same molecule?
**A.** Its value is 106.67 ± 8.24%.

**Q.** And the “20 μg/mL 48-hour survival rate” value (BxPC-3)?
**A.** The value was 91.33 ± 5.93%.

**Q.** And the cytotoxicity [2]?
**A.** Its cytotoxicity is “not cytotoxic”.

**Q.** And the “20 μg/mL 48-hour survival rate” value (Vero E6 cells)?
**A.** The value was 96.28 ± 3.66%.

**Q.** And the “20 μg/mL 48-hour survival rate” value (AML12 cells)?
**A.** The value was 91.99 ± 2.6%.

**Q.** What about the solubility [1] of the same molecule?
**A.** The solubility was 780 µg/mL (≈ 2890 µM).
